One series relates to MIA PaCa-2. Kind of series: Cytostatic activity against human MiaPaCa2 cells after 72 hrs by MTT assay. The series is classed as functional, cell-based. The following applies: MIA PaCa-2, 72 h.
The next series deals with CCRF-CEM. Description: Cytostatic activity against human CEM cells after 72 hrs by MTT assay. The series is classed as functional, cell-based. (Tetrazolium dyes change colour on reduction, which living cells bring about.)
The next series concerns L1210. Description: Cytostatic activity against mouse L1210 cells after 72 hrs by MTT assay. The series is classed as functional, cell-based. The following applies: L1210, 72 h.
In another series the test system is Punta Toro virus. Description: Antiviral activity against Punta Toro virus infected in african green monkey Vero cells assessed as reduction of virus-induced cytopathogenicity. In kind it is functional, organism-based.
In series [1] the test system is Human betaherpesvirus 5. Description: Antiviral activity against HCMV Davis infected in HEL cells assessed as reduction of virus-induced cytopathogenicity after 3 days. In kind it is functional, organism-based. The following applies: Human betaherpesvirus 5, Davis, 72 h. In general terms: Cytopathic effects are the visible damage that an infection or toxin causes in cultured cells.

Another series concerns Human respirovirus 3. Kind of series: Antiviral activity against parainfluenza virus 3 infected in african green monkey Vero cells assessed as reduction of virus-induced cytopathogenicity. In kind it is functional, organism-based.
The subject of series [2] is Coxsackievirus B4. Description: Antiviral activity against Coxsackievirus B4 infected in HeLa cells assessed as reduction of virus-induced cytopathogenicity. The series is classed as functional, organism-based.
Series [3] in a line: Cytostatic activity against human Molt4/C8 cells after 72 hrs by MTT assay. In kind it is functional, cell-based. To be noted: MOLT-4, 72 h.
The next series relates to Sindbis virus. Kind of series: Antiviral activity against Sindbis virus infected in african green monkey Vero cells assessed as reduction of virus-induced cytopathogenicity. In kind it is functional, organism-based.
Series [4] can be described thus: Cytostatic activity against human WI38 cells after 72 hrs by MTT assay. In kind it is cell-based. The following applies: WI-38, 72 h.
In series [5] the test system is Mammalian orthoreovirus 1. Description: Antiviral activity against Reovirus 1 infected in african green monkey Vero cells assessed as reduction of virus-induced cytopathogenicity. The series is classed as functional, organism-based.
The test system of series [6] is Coxsackievirus B4. Description: Antiviral activity against Coxsackievirus B4 infected in african green monkey Vero cells assessed as reduction of virus-induced cytopathogenicity. The series is classed as functional, organism-based.
Series [7] can be described thus: Cytotoxicity against HEL cells assessed as reduction in cell growth. To be noted: human. In kind it is cell-based.
For series [8], the system named is Human betaherpesvirus 5. Description: Antiviral activity against HCMV AD169 infected in HEL cells assessed as reduction of virus-induced cytopathogenicity after 3 days. The following applies: Human betaherpesvirus 5, AD169, HEL, 72 h. The series is classed as functional, organism-based.
Series [9] deals with Vesicular stomatitis virus. Kind of series: Antiviral activity against vesicular stomatitis virus infected in HEL cells assessed as reduction of virus-induced cytopathogenicity. The series is classed as functional, organism-based.
Series [10] deals with Vesicular stomatitis virus. Description: Antiviral activity against vesicular stomatitis virus infected in HeLa cells assessed as reduction of virus-induced cytopathogenicity. In kind it is functional, organism-based.
A short description of series [11]: Cytotoxicity against HEL cells assessed as change in cell morphology. In kind it is cell-based. The following applies: human.
In a further series the test system is Human alphaherpesvirus 1. Description: Antiviral activity against HSV1 infected in HEL cells assessed as reduction of virus-induced cytopathogenicity. The series is classed as functional, organism-based.
Another series relates to HeLa. Description: Cytostatic activity against human HeLa cells after 72 hrs by MTT assay. The series is classed as functional, cell-based.
The next series deals with Human alphaherpesvirus 2. Kind of series: Antiviral activity against HSV2 infected in HEL cells assessed as reduction of virus-induced cytopathogenicity. In kind it is functional, organism-based.
For series [12], the system named is Respiratory syncytial virus. Kind of series: Antiviral activity against respiratory syncytial virus infected in HeLa cells assessed as reduction of virus-induced cytopathogenicity. The series is classed as functional, organism-based.
The test system of the next series is NCI-H460. Description: Cytostatic activity against human H460 cells after 72 hrs by MTT assay. The following applies: NCI-H460, 72 h. In kind it is functional, cell-based.
A further series deals with MCF7. Description: Cytostatic activity against human MCF7 cells after 72 hrs by MTT assay. The series is classed as functional, cell-based. To be noted: MCF7, 72 h.
A further series has as its system SW-620. Description: Cytostatic activity against human SW620 cells after 72 hrs by MTT assay. In kind it is functional, cell-based. To be noted: SW-620, 72 h.

The source made the active and inactive calls. No cut-off for these calls is given here.

Usually IC50 stands for the concentration needed to halve the response being measured. The term EC50 denotes the midpoint of the concentration-response curve. As a reminder, the CC50 is the concentration that lowers cell viability or growth by half. As to `COc1cc(NC(C)CCCNC(=O)NC(c2ccccc2)c2ccccc2)c2ncccc2c1` (stereo unspecified), the IC50 in the series on MIA PaCa-2 was 100 µM; in the series with CCRF-CEM, 142 µM; with L1210, above 500 µM; in series [3], at least 500 µM; in series [4] it was above 100 µM; in the series on HeLa, 100 µM. The IC50 with NCI-H460 is above 100 µM; with MCF7 it was above 100 µM; in the series on SW-620, 58 µM. Moreover, the result (with Punta Toro virus; in the series with Human respirovirus 3; in the series with Coxsackievirus B4 [2]; in the series on Sindbis virus; in [5]; in the series with Coxsackievirus B4 [6]) was inactive. In addition, the outcome (in series [9]; in [10]; with Human alphaherpesvirus 1; in the series on Human alphaherpesvirus 2; in series [12]) was inactive. Besides, the 50% effective concentration (EC50) with Human betaherpesvirus 5 [1] and in the series with Human betaherpesvirus 5 [8] was above 100 µM in each case. The cytotoxic concentration (CC50) in [7] is above 100 µM. In series [11], the MCC is above 100 µM.
Take `Nc1nc(O)c2ncn(COC(CO)CO)c2n1` [GANCICLOVIR]: the MCC in series [11] is above 1580 µM.
On to `COc1cc(NC(C)CCCNC(=O)n2nnc3ccccc32)c2ncccc2c1` (stereo unspecified) [PRIMAQUINE BENZOTRIAZOLIDE], for which the IC50 with MIA PaCa-2 is 84 µM; in the series on CCRF-CEM it was above 100 µM; in the series with L1210 it was 125 µM; in series [3] it was 74 µM; in [4], above 100 µM; with HeLa it was 71 µM. The 50% inhibitory concentration (IC50) with NCI-H460, in the series with MCF7 and in the series with SW-620 was above 100 µM in each case. Besides, the result (in the series on Punta Toro virus; in the series on Human respirovirus 3; in the series on Coxsackievirus B4 [2]; in the series with Sindbis virus; in series [5]; in the series on Coxsackievirus B4 [6]) was inactive. Moreover, the outcome (in series [9]; in [10]; in the series on Human alphaherpesvirus 1; with Human alphaherpesvirus 2; in [12]) was inactive. For the same compound, the EC50 in the series on Human betaherpesvirus 5 [1] is above 30 µM; in the series with Human betaherpesvirus 5 [8], above 100 µM. Further, the 50% cytotoxic concentration (CC50) in [7] is 72 µM. Besides, in series [11], the MCC is above 100 µM.
Turning to `COc1cc(NC(C)CCCNC(=O)NCCc2ccccc2)c2ncccc2c1` (stereo unspecified), the concentration for half-maximal inhibition (IC50) is 30 µM in the series on MIA PaCa-2; 34 µM in the series on CCRF-CEM; 24 µM in the series with L1210; 45 µM in series [3]; above 100 µM in [4]; above 100 µM with HeLa. Also, the IC50 came to 54 µM in the series on NCI-H460, 27 µM in the series with MCF7 and 32 µM in the series on SW-620. For the same compound, the result (in the series on Punta Toro virus; in the series with Human respirovirus 3; with Coxsackievirus B4 [2]; with Sindbis virus; in series [5]; in the series on Coxsackievirus B4 [6]) was inactive. Further, the result (in series [9]; in series [10]; in the series on Human alphaherpesvirus 1; in the series on Human alphaherpesvirus 2; in series [12]) was inactive. Moreover, the values for the EC50 in the series on Human betaherpesvirus 5 [1] and in the series with Human betaherpesvirus 5 [8] were 2.9 µM and 12.6 µM, respectively. Besides, the CC50 in [7] was 56 µM. The MCC in [11] is above 100 µM.
`COc1cc(NC(C)CCCNC(=O)NCc2ccncc2)c2ncccc2c1` (stereo unspecified): the concentration for half-maximal inhibition (IC50) in the series on MIA PaCa-2 was determined as 20 µM; in the series on CCRF-CEM, 2.9 µM; with L1210, 3 µM; in series [3], 24 µM; in series [4], 10 µM; in the series on HeLa it was 18 µM. Besides, the half-inhibitory concentration (IC50) with NCI-H460 came to 48 µM; in the series on MCF7 it was 30 µM; with SW-620, 2 µM. Further, the outcome (with Punta Toro virus; in the series with Human respirovirus 3; in the series on Coxsackievirus B4 [2]; in the series on Sindbis virus; in series [5]; with Coxsackievirus B4 [6]) was inactive. The result (in series [9]; in series [10]; with Human alphaherpesvirus 1; with Human alphaherpesvirus 2; in [12]) was inactive. Further, the EC50 turned out to be 1.2 µM in the series with Human betaherpesvirus 5 [1] and 13.4 µM with Human betaherpesvirus 5 [8]. Further, in series [7], the cytotoxic concentration (CC50) is 72 µM. Further, the MCC in [11] turned out to be 100 µM.
With `COc1cc(NC(C)CCCNC(=O)NCC2CCCCC2)c2ncccc2c1` (stereo unspecified), the IC50 in the series on MIA PaCa-2 is 60 µM; with CCRF-CEM, 22 µM; in the series with L1210, 22 µM; in series [3], 53 µM; in series [4], above 100 µM; in the series with HeLa it was above 100 µM. Moreover, the concentration for half-maximal inhibition (IC50) is above 100 µM in the series with NCI-H460, 61 µM with MCF7 and 61 µM with SW-620. Further, the outcome (in the series with Punta Toro virus; with Human respirovirus 3; in the series on Coxsackievirus B4 [2]; in the series on Sindbis virus; in [5]; in the series with Coxsackievirus B4 [6]) was inactive. Besides, the result (in series [9]; in series [10]; with Human alphaherpesvirus 1; in the series on Human alphaherpesvirus 2; in [12]) was inactive. Moreover, the concentration giving a half-maximal response (EC50) in the series with Human betaherpesvirus 5 [1] came to 7.6 µM; with Human betaherpesvirus 5 [8], 15.3 µM. Also, the CC50 in series [7] was 74 µM. In addition, the MCC in series [11] was found to be 100 µM.
With `COc1cc(NC(C)CCCNC(=O)NCc2ccccc2)c2ncccc2c1` (stereo unspecified), the IC50 with MIA PaCa-2 came to 21 µM; with CCRF-CEM it was 18 µM; in the series on L1210, 22 µM; in series [3], 21 µM; in series [4], 35 µM; with HeLa, 15 µM. Besides, the values for the half-inhibitory concentration (IC50) in the series with NCI-H460, in the series with MCF7 and in the series on SW-620 were 30 µM, 25 µM and 9 µM, respectively. In addition, the outcome (with Punta Toro virus; in the series on Human respirovirus 3; in the series with Coxsackievirus B4 [2]; in the series with Sindbis virus; in series [5]; in the series on Coxsackievirus B4 [6]) was inactive. The result (in [9]; in series [10]; with Human alphaherpesvirus 1; with Human alphaherpesvirus 2; in [12]) was inactive. Further, the EC50 with Human betaherpesvirus 5 [1] was 7.6 µM; with Human betaherpesvirus 5 [8], above 20 µM. Further, the half-maximal cytotoxic concentration (CC50) in series [7] worked out at 66 µM. Moreover, the MCC in [11] was 100 µM.
With `Nc1ccn(C[C@@H](CO)OCP(=O)(O)O)c(=O)n1` [CIDOFOVIR], the MCC in series [11] is above 1270 µM.

The record behind these values is ChEMBL document CHEMBL1156695, “The novel primaquine derivatives of N-alkyl, cycloalkyl or aryl urea: synthesis, cytostatic and antiviral activity evaluations” (Eur J Med Chem, 2008).
